According to patent US4351836A, “1,2,3,4,4a,5,10,10a-Octahydro-5,10-ortho-benzenobenz[g]isoquinolines and antidepressant use thereof” (E. I. Du Pont de Nemours and Company, priority 1980, dated 1982):
Structures can show the parent of a compound that is named as a salt. Where two headings read alike, the source gives them in different places.

What was measured:
[1] = system: tetrabenazine-induced sedation and depression in mice; assay: Antagonism of tetrabenazine-induced depression in mice, orally; type: in vivo, female white mice (Carworth CF1 S); conditions: oral, 1 hr post drug, 30 minutes after tetrabenazine 32 mg/kg intraperitoneally, female mice; for ED50: Mus musculus, read-out: ED50 for prevention of exploratory loss
[2] = system: tetrabenazine-induced sedation and depression in mice; assay: as above; type: in vivo, female white mice (Carworth CF1 S); conditions: oral, 1 hr post drug, 30 minutes after tetrabenazine 32 mg/kg intraperitoneally, female mice; for ED50: Mus musculus, read-out: ED50 for prevention of ptosis
Experimental: Relief from ptosis was recorded when exactly two seconds after placing the mouse facing the observer, lid closure was less than 50% in both eyes.

[3] = background statement, no test described; cited from earlier work

| Molecule | ED50 [1] [mg/kg] | ED50 [2] [mg/kg] | side effects [3] | ED50 for prevention of exploratory loss [1] [mg/kg] | ED50 for prevention of ptosis [2] |
| --- | --- | --- | --- | --- | --- |
| CC(O)CCN1CCC2C3c4ccccc4C(c4ccccc43)C2C1 (centres unmarked) | 5.6 | 4.9 |  |  |  |
| c1ccc(OCCN2CCC3C4c5ccccc5C(c5ccccc54)C3C2)cc1 (centres unmarked) | 27 | 10.8 |  |  |  |
| CCOC(=O)CCN1CCC2C3c4ccccc4C(c4ccccc43)C2C1 (racemic) [(±)1,2,3,4,4a,5,10,10a-octahydro-5,10-o-benzenobenz[g]isoquinoline-2-propionic acid ethyl ester] | 20 | 8.1 |  |  |  |
| CCCCN1CCC2C3c4ccccc4C(c4ccccc43)C2C1 (racemic) [(±)2-(1-butyl)-1,2,3,4,4a,5,10,10a-Octahydro-5,10-o-benzenobenz[g]isoquinoline Maleate] | 19 | 11.2 |  |  |  |
| c1ccc(CCN2CCC3C4c5ccccc5C(c5ccccc54)C3C2)cc1 (racemic) [R=CH2 CH2 C6 H5, R1=H, R2=H, R3=H, R4=H, (±)1,2,3,4,4a,5,10,10a-octahydro-2-phenethyl-5,10-o-benzenobenz[g]isoquinoline, hydrochloride hemihydrate] | 13.6 | 11.8 |  |  |  |
| CC(=O)CCN1CCC2C3c4ccccc4C(c4ccccc43)C2C1 (racemic) [R=CH2 CH2 COCH3, R1=H, R2=H, R3=H, R4=H, (±)4-(1,2,3,4,4a,5,10,10a-Octahydro-5,10-o-benzenobenz[g]isoquinoline-2-yl)-2-butanone Maleate] | 4.4 | 2.1 |  |  |  |
| O=C(O)CCN1CCC2C3c4ccccc4C(c4ccccc43)C2C1 (racemic) [R=CH2 CH2 COOH, R1=H, R2=H, R3=H, R4=H, (±)1,2,3,4,4a,5,10,10a-Octahydro-5,10-o-benzenobenz[g]isoquinoline-2-propionic Acid Hydrochloride] | 27 | 15 |  |  |  |
| c1ccc(C(CN2CCC3C4c5ccccc5C(c5ccccc54)C3C2)c2ccccc2)cc1 (racemic) [R=CH2 CH(C6 H5)2, R1=H, R2=H, R3=H, R4=H, (±)1,2,3,4,4a,5,10,10a-octahydro-2-(2,2-diphenylethyl)-5,10-o-benzenobenz[g]isoquinoline hydrochloride] | 47 | 12 |  |  |  |
| CN1CCC2C3c4ccccc4C(c4ccccc43)C2C1 (racemic) [R=CH3, R1=H, R2=H, R3=H, R4=H, (±)1,2,3,4,4a,5,10,10a-Octrahydro-2-methyl-5,10-o-benzenobenz[g]isoquinoline Hydrochloride] | 6 | 1 |  |  |  |
| CCOC(=O)N1CCC2C3c4ccccc4C(c4ccccc43)C2C1 (racemic) [R=COOC2 H5, R1=H, R2=H, R3=H, R4=H, (±)1,2,3,4,4a,5,10,10a-Octahydro-5,10-o-benzenobenz[g]isoquinoline-2-carboxylic Acid, Ethyl Ester] | 5.4 | 2.1 |  |  |  |
| c1ccc2c(c1)C1c3ccccc3C2C2CNCCC12 (racemic) [R=H, R1=H, R2=H, R3=H, R4=H, (±)1,2,3,4,4a,5,10,10a-Octahydro-5,10-o-benzenobenz[g]isoquinoline Hydrochloride] | 1.5 | 0.41 |  |  |  |
| CN(C)CCC=C1c2ccccc2CCc2ccccc21 [Amitriptyline, reference compound] | 1.2 | 1 |  |  |  |
| CN(C)CCCN1c2ccccc2CCc2ccccc21 [Imipramine] |  |  | may cause blurred vision, dryness of mouth, constipation, urinary retention, orthostatic hypotension, respiration depression, myocardial infarction and congestive heart failure |  |  |
| (±)1,2,3,4,4a,5,10,10a-octahydro-5-(or: -10)-methyl-5,10-o-benzobenz[g]isoquinoline hydrochloride [R=H, R1=CH3 (H), R2=H(CH3), R3=H, R4=H] |  |  |  | 38 | 22 mg/kg |
| (±)1,2,3,4,4a,5,10,10a-octahydro-7-(or: -8-)methyl-5,10-o-benzenobenz[g]isoquinoline hydrochloride [R=H, R1=H, R2=H, R3=7 or 8-CH3, R4=H] |  |  |  | 4.8 | .94 mg/kg |
| (±)1,2,3,4,4a,-5,10,10a-octahydro-2,5-dimethyl-5,10-o-benzenobenz[g]isoquinoline or (±)1,2,3,4,4a,5,10,10a-octahydro-2,10-dimethyl-5,10-o-benzenobenz[g]isoquinoline [R=CH3, R1=CH3 (H), R2=H(CH3), R3=H, R4=H] |  |  |  | 27 | 21 mg/kg |
| (±)2-(1-adamantylmethyl)-1,2,3,4,4a,5,10,10a-octahydro-5,10-o-benzenobenz[g]isoquinoline, hydrochloride hemihydrate [R=1-adamantyl, R1=H, R2=H, R3=H, R4=H] |  |  |  | 41 | 24 mg/kg |
| (±)6,10-dichloro-1,2,3,4,4a,5,10,10a-octahydro-2-methyl-5,10-o-benzenobenz[g]isoquinoline hydrochloride [R=CH3, R1=H, R2=H, R3=6-Cl, R4=10-Cl] |  |  |  | 22 | 12.2 mg/kg |
| (±)6-(or: -9-)-chloro-1,2,3,4,4a,5,10,10a-octahydro-2-methyl-5,10-o-benzenobenz[g]isoquinoline hydrochloride [R=CH3, R1=H, R2=H, R3=6 or 9-Cl, R4=H] |  |  |  | 1.4 | 1.3 mg/kg |
| (±)6-(or: -9-)chloro-1,2,3,4,4a,10,10a-octahydro-5,10-o-benzenobenz[g]isoquinoline hydrochloride [R=H, R1=H, R2=H, R3=6 or 9-Cl, R4=H] |  |  |  | 2.5 | 2.2 mg/kg |
| (±)7-(or: -8-)-chloro-1,2,3,4,4a,5,10,10a-octahydro-5,10-o-benzenobenz[g]isoquinoline hydrochloride [R=H, R1=H, R2=H, R3=7 or 8-Cl, R4=H] |  |  |  | 1.7 | 1.4 mg/kg |
| (±)7-(or: -8-)-fluoro-1,2,3,4,4a,5,10,10a-octahydro-5,10-o-benzenobenz[g]isoquinoline hydrochloride [R=H, R1=H, R2=H, R3=7 or 8-F, R4=H] |  |  |  | 1.7 | .58 mg/kg |
| (±)7-(or: -8-)chloro-1,2,3,4,4a,5,10,10a-octahydro-2-methyl-5,10-o-benzenobenz[g]isoquinoline hydrochloride hemihydrate [R=CH3, R1=H, R2=H, R3=7 or 8-Cl, R4=H] |  |  |  | 4.5 | 3.4 mg/kg |
| (±)7-(or: -8-)fluoro-1,2,3,4,4a,5,10,10a-octahydro-2-methyl-5,10-o-benzenobenz[g]isoquinoline hydrochloride [R=CH3, R1=H, R2=H, R3=7 or 8-F, R4=H] |  |  |  | 2.7 | 2.0 mg/kg |
